In patent US9944606B2, “Cannabinoid receptor modulators” (Arena Pharmaceuticals, Inc., priority 2009, dated 2018):

How the values were obtained:
[1] = system: streptozotocin-induced painful diabetic peripheral neuropathy; test: Streptozotocin-induced painful diabetic peripheral neuropathy (PDPN) model; assay type: in vivo, Sprague-Dawley rats; settings: diabetic allodynic rats, 10 mg/kg orally in 0.5% methylcellulose, 1, 4 and 6 hours post-dosing, FIG. 17 and FIG. 18
Procedure: Male Sprague-Dawley rats were injected intraperitoneally with 50 mg/kg of streptozotocin (STZ) in sodium citrate buffer. 10% sucrose water was provided ad libitum for the first 48 hours post-STZ followed by regular drinking water. Rats were monitored once weekly for blood glucose levels and body weights. Development of tactile allodynia over time was analyzed using Von Frey filaments and a 50% withdrawal threshold was determined using Dixon's up-down procedure. […] Tactile allodynia was evaluated at 1, 4 and 6 hours post-dosing.

hCB1 = hCB1 (Homo sapiens (Human), UniProt P21554); test: Radioligand binding assay, hCB1; settings: NR = No Response
human CB2 receptor = human CB2 receptor (Homo sapiens (Human), UniProt P34972); test: Radioligand binding assay ([3H]CP55,940 / [3H]WIN55,212-2), hCB2; settings: HEK293 membranes expressing human CB2, NR = No Response
Procedure: Preparation of Membranes: HEK293 cells stably expressing human CB2 receptor were collected, washed in ice cold PBS, and centrifuged at 48,000×g for 20 min at 4° C. The cell pellet was then collected, resuspended in wash buffer (20 mM HEPES, pH 7.4 and 1 mM EDTA), homogenized on ice using a Brinkman Polytron, and centrifuged at 48,000×g for 20 min at 4° C. The resultant pellet was resuspended in ice cold 20 mM HEPES, pH 7.4, homogenized again on ice, recentrifuged for 20 min at 4° C., and membrane pellets were then stored at −80° C. until needed.
[…] and [^3H]WIN55, 212-2 Radioligand Binding Assays: Radioligand binding assays for human CB2 receptors were performed using two different agonist radioligands, [^3H]CP55,940 and [^3H]WIN55, 212-2 and similar assay conditions. For both assays, nonspecific binding was determined in the presence of 10 μM unlabeled compound. […] Then, 25 μL of BetaScint scintillation cocktail was added to each well, and plates were read in a Packard TopCount scintillation counter.

[2] = system: MIA model of osteoarthritis; test: MIA model of osteoarthritis pain (von Frey, weight distribution, grip strength); assay type: in vivo, Sprague Dawley rats; settings: MIA rats, 3, 10 and 30 mg/kg orally, one hour after dosing, FIG. 2
Excerpt: Injection of monosodium iodoacetate (MIA) into a joint (Kalbhen, 1987) inhibits the activity of glyceraldehyde-3-phosphate dehydrogenase in chondrocytes, resulting in disruption of glycolysis and eventually in cell death. The progressive loss of chondrocytes results in histological and morphological changes of the articular cartilage, closely resembling those seen in osteoarthritis patients.
The osteoarthritis was induced in 200 g male Sprague Dawley rats. […]
Typically during disease progression, there was an inflammation period of 0-7 days post-intra-articular injection followed by progressive degeneration of the cartilage and subchondral bone from days 14-55. […] Tactile allodynia was measured via von Frey assay, hind limb paw weight distribution was monitored using an incapacitence tester (Columbus Instruments, Columbus, Ohio, USA) and hind limb grip strength was measured using a grip strength meter (Columbus Instruments, Columbus, Ohio, USA). […] Hind paw weight distribution was determined by placing rats in a chamber so that each hind paw rests on a separate force plate of the incapacitence tester. The force exerted by each hind limb (measured in grams) is averaged over a 3 second period. Three measurements were taken for each rat, and the change in hind paw weight distribution calculated. […]

[3] = system: FCA-induced hyperalgesia model of inflammatory pain; test: FCA-induced hyperalgesia in rats; assay type: in vivo, Sprague Dawley rats; settings: FCA rats, 0.1, 1, 3, 10 and 30 mg/kg orally, 1 h post dosing, Analgesy-Meter, FIG. 1
Procedure: Animal Info: Male Sprague Dawley rats from Harlan (200-225 g when received) were used. Upon arrival, rats were housed 4 per cage in shoe-box polycarbonate cages with wire tops, wood chip bedding and suspended food and water bottles Animals were acclimated for 5-7 days prior to being injected with Freund's complete adjuvant (FCA) (Sigma; catalog #5881).
Experimental procedure: 2 days (48 h) before testing compounds, baseline readings of all rats were taken right before FCA injection. Rats were then injected with 50 μL FCA containing 1 mg/mL Mtb (Mycobacterium tuberculosis) in right hind footpad under inhalation anesthesia (isoflurane). 48 hours after FCA injection, readings were taken as pre-dosing baseline and then rats were dosed orally with 0.5 mL of vehicle or compound (0.5 mL per 250 g rat). Readings were taken again at 1 h post dosing. All readings were taken with an Analgesy-Meter (Ugo Basile) which measures mechanical hyperalgesia via paw pressure.
Clinical scoring: FCA-induced hyperalgesia was tested with an Analgesy-Meter. Briefly, the Analgesy Meter applied an increasing pressure to the right hind paw. The paw withdrawal threshold was the pressure leading to withdrawal.
Meanwhile a group of rats were dosed orally with 50 mg/kg of Diclofenac as a positive control. Readings were taken again at 1 h post dosing. Dosing volume was 500 μL per 250 g rat.

[4] = system: paclitaxel-induced allodynia; test: Paclitaxel-induced allodynia in Sprague Dawley rats; assay type: in vivo; settings: 10 mg/kg orally, FIG. 3
Procedure: Animals: Male Sprague Dawley rats [200-250 g] (Harlan Laboratories Inc., Livermore, Calif.) were housed three per cage and maintained in a humidity-controlled (40-60%) and temperature-controlled (68-72° F.) facility on a 12 h:12 h light/dark cycle (lights on at 6:30 am) with free access to food (Harlan Teklad, Orange, Calif., Rodent Diet 8604) and water. Rats were allowed one week of habituation to the animal facility before starting treatment.
Induction of Allodynia: Rats were treated intraperitoneally, with 2 mg/kg of paclitaxel (Sigma Aldrich, Saint Louis, Mo.) in 10% Cremophor vehicle (500 μL) on days 0, 2, 4, and 6.
Clinical scoring: Tactile allodynia was tested using von Frey filaments. Briefly, the von Frey assay was performed using the standardized up down method with von Frey filaments, that determine the tactile sensitivity of the paw. By applying the increasingly or decreasingly thicker filaments to the paw in a logarithmic scale of actual force, a linear scale of perceived intensity is determined
Drug treatment: Eight days after the start of paclitaxel dosing, a baseline measurement (von Frey assay) was performed prior to dosing of compounds. […] As a positive control, rats were dosed intraperitoneally with 100 mg/kg gabapentin in water. The dosing volume for oral and peritoneal treatment was 500 μL. […]

## CC(C)(C)[C@@H](CO)NC(=O)c1nn(-c2c[n+]([O-])ccn2)c2c1C[C@@H]1C[C@H]21 [Compound 699, (1aS,5aS)-2-(4-Oxy-pyrazin-2-yl)-1a,2,5,5a-tetrahydro-1H-2,3-diaza-cyclopropa[a]pentalene-4-carboxylic Acid ((S)-1-Hydroxymethyl-2,2-dimethyl-propyl)-amide]
[1]
  analgesic efficacy (tactile allodynia, 50% withdrawal threshold): robust and sustained analgesic efficacy over 6 hours

## CONC(=O)[C@@H](NC(=O)c1nn(-c2c[n+]([O-])ccn2)c2c1C[C@H]1C[C@@H]21)C(C)(C)C [Compound 755]
hCB1
  Ki: 1200 nM
Human CB2 receptor
  Ki: 3.8 nM

## CNC(=O)[C@@H](NC(=O)c1nn(-c2c[n+]([O-])ccn2)c2c1C[C@@H]1C[C@H]21)C(C)(C)C [Compound 701]
hCB1
  Ki: 105 nM

## CC(C)(NC(=O)c1nn(-c2c[n+]([O-])ccn2)c2c1C[C@@H]1C[C@H]21)C(F)(F)F [Compound 919, (1aS,5aS)-2-(4-Oxy-pyrazin-2-yl)-1a,2,5,5a-tetrahydro-1H-2,3-diaza-cyclopropa[a]pentalene-4-carboxylic acid (2,2,2-trifluoro-1,1-dimethyl-ethyl)-amide]
[1]
  analgesic efficacy (tactile allodynia, 50% withdrawal threshold): robust and sustained analgesic efficacy over 6 hours

## CC(C)(CO)NC(=O)c1nn(-c2ccc(F)cc2F)c2c1C[C@H]1C[C@@H]21 [Compound 493, (1aR,5aR)-2-(2,4-Difluoro-phenyl)-1a,2,5,5a-tetrahydro-1H-2,3-diaza-cyclopropa[a]pentalene-4-carboxylic Acid (2-Hydroxy-1,1-dimethyl-ethyl)-amide]
[2]
  paw withdrawal threshold (PWT) in comparison with vehicle, therapeutic efficacy: Increase in paw withdrawal threshold (PWT)
[3]
  paw withdrawal threshold (PWT) in comparison with vehicle, therapeutic efficacy: increase in paw withdrawal threshold (PWT)
[4]; time course
  time of maximum efficacy post-dosing: 1 h
[4]; von Frey 30, 60 and 180 minutes after dosing
  paw withdrawal threshold (PWT) in comparison with vehicle and gabapentin, therapeutic efficacy: increase in paw withdrawal threshold (PWT)
